Patent publication US10197574B2, “Analyte detection using near-infrared fluorophores” (Portland State University, priority 2011, dated 2019)
Marks after values point to notes of the source that are not given here. Blank lines part the entries; values can stand above or below the compound they belong to.

Assays:
[1] = UV-visible absorbance spectroscopy of fluorophores (15 μM, 90% aqueous, 10% DMSO); format: physicochemical; conditions: for red-shift of absorbance maximum: 15a compared to 20a, anion 15h compared to anion 20c
Description: Compounds 20a and 15a were characterized by UV-visible spectroscopy (FIG. 25). Absorbance was measured using 15 μM solutions of each compound in a solution that was 90% aqueous, 10% DMSO. The peaks at 545 nm (light dashed line) and 595 nm (light solid line) represent the respective anions, compounds 20c and 15h, in NaOH (pH 12). The peaks at 515 nm (heavy dashed line) and 525 nm (heavy solid line) represent the predominantly neutral forms of compounds 20a and 15a at pH 6, respectively.
Although the red shift of compound 15a in methanol was modest, its corresponding anion (compound 15h) in DMSO:aqueous base 1:9 was shifted more substantially by 50 nm to […] as compared to anion 20c under the same conditions. Its fluorescence emission was shifted by an even larger […], emitting at 760 nm. The comparatively large shift of the anion 15h supports a polar effect as playing a key role in modulating the HOMO-LUMO gap in the compound. […]
Known seminaphthorhodafluors display long wavelength absorption at high pH; however, the free amino compound in this series respond to low pH with increased long wavelength absorption.

[2] = Fluorescence emission spectra and Stokes shift of fluorophores (15 μM, 90% aqueous, 10% DMSO); format: physicochemical
Description: Compounds 21 and 7 also were characterized by their fluorescence emission spectra. Fluorescence was measured using 15 μM solutions of each compound in a solution that was 90% aqueous, 10% DMSO. For compound 21, the longest wavelength emission observed from the dianion occurred near 680 nm at pH 9. For compound 7 (transposed), the longest wavelength emission observed from the monoanion occurred near 800 nm at pH 9.
The Stokes shift of each compound was measured and determined to be about 80 nm for the compound 21 dianion, and about 150 nm for the compound 7 (transposed) monoanion.
Compounds 22 and 8 also were characterized by their fluorescence emission spectra. Fluorescence was measured using 15 μM solutions of each compound in a solution that was 90% aqueous, 10% DMSO. For compound 22, the longest wavelength emission observed from the anion occurred near 690 nm at pH 9. For compound 8 (transposed), emission was not observed. Given the greater than 800 nm absorbance peak and the typically large Stokes shifts observed in this class of compounds, it is likely that the emission was beyond the working range of the instrument (>850 nm).
The Stokes shift of each compound was measured and determined to be about 80 nm for the compound 22 anion, and unmeasurable for the compound 8 (transposed) neutral form.
Compounds 20a and 15a also were characterized by their fluorescence emission spectra. Fluorescence was measured using 15 μM solutions of each compound in a solution that was 90% aqueous, 10% DMSO. For compound 20a, the longest wavelength emission observed from its corresponding anion, compound 20c, occurred near 640 nm in NaOH (pH 12). For compound 15a (with 3-1 transposition), the longest wavelength emission observed from the corresponding anion, compound 15h, occurred near 760 nm in NaOH.
The Stokes shift of each compound was measured and determined to be about 95 nm for the compound 20c anion, and about 165 nm for the compound 15h (transposed) anion. Thus, the 3-1 transposition enhanced the Stokes shift by about 70 nm.
(§1) Compound 15b also was characterized by its fluorescence emission spectrum and compared to C.SNARF-5. Fluorescence was measured using a 15 μM solution of compound 15b in a solution that was 90% aqueous, 10% DMSO. For C.SNARF-5, the longest wavelength emission observed from the anion occurred near 632 nm (Whitaker et al., Anal. Biochem. 1991, 194, 330-344). For compound 15b (transposed), the longest wavelength emission observed from the phenoxide occurred near 770 nm.
The Stokes shift of each compound was measured and determined to be about 82 nm for the C.SNARF-5 anion, and about 155 nm for the compound 15b (transposed) phenoxide. Thus, the 3-1 transposition enhanced the Stokes shift by about 73 nm.
as §1, with “15d” for “15b”, “SNARF-1.” for “C.SNARF-5.”, “SNARF-1,” for “C.SNARF-5,”, “631” for “632”, “780 nm (NaOH, pH 12).” for “770 nm.”
The Stokes shift of each compound was measured and determined to be about 58 nm for the SNARF-1 anion, and about 150 nm for the compound 15d (transposed) phenoxide. Thus, the 3-1 transposition enhanced the Stokes shift by about 92 nm.
Compounds 20b and 15g also were characterized by their fluorescence emission spectra. Fluorescence was measured using 15 μM solutions of each compound in a solution that was 90% aqueous, 10% DMSO. For compound 20b, the longest wavelength emission observed from the cation occurred near 640 nm at pH 7.4. For compound 15g (transposed), the longest wavelength emission observed from the cation occurred near 770 nm at pH 7.4. […]

[3] = Emission in blood; parameters: species or system porcine
Description: Compound 15d (Table 1) was diluted to 40 μM in 50% DMSO:50% 25 mM pH 9 phosphate buffer. […] Emission remained stable for at least 1 hour. The absorption profile matches the output of a laser pointer (635-670 nm; max output <5 mW). NIR emission (80 μM) was clearly visible with a digital camera (Kodak EasyShare Z740) in a NIR photograph taken with 8 sec. exposure collected through a Hoya R72 camera filter (% T<1% at <690 nm, % T>90% at >750 nm).
Its absorbance and fluorescence spectra faded over time, but remained visible after about an hour (although with only 10-20% of its original emission intensity). Molecular modeling has shown favorable structural interactions of compounds 5f and 24 with glutathione (see, e.g., FIG. 20—compound 24).
Spectral behavior of compound 15g (type [c] annulated seminaphthorhodamine methyl ester (free amine) with the 3-1 transposition) was investigated to determine its potential for sensing use in whole blood. Solutions of compound 15g in 10% or 90% by volume whole blood (porcine blood in Na-EDTA, Lampire Biological Laboratories) were investigated in a 3×3 mm cell. […] Throughout much of the spectrum, the dye produces a greater absorbance than the blood alone. The change in absorbance between the two spectra provides the effective absorbance of the dye. […]

[4] = Absorbance and fluorescence measured in methanol; format: physicochemical; conditions: versus analogue with known regiochemistry (8 vs 22, 15a vs 20a)
Description: Absorbance and fluorescence of compounds 22 and 8 also were measured in methanol. […] Thus, placement of the hydroxyl group proximal to the xanthene internal oxygen in compound 8 produced a bathochromic shift of 103 nm in the absorption spectrum. The transposition also imparted a corresponding shift in the excitation spectrum, and a large bathochromic shift of 128 nm in the fluorescence emission. Importantly, compound 8 absorbs and emits in the near-infrared with absorption and emission maxima of 701 nm and 816 nm, respectively.
Absorbance and fluorescence of compounds 20a and 15a also were measured in methanol. […] Thus, placement of the hydroxyl group proximal to the xanthene internal oxygen in compound 15a produced a bathochromic shift of 15 nm in the absorbance spectrum. The transposition also imparted a corresponding shift in the excitation spectrum, and a large bathochromic shift of 32 nm in the fluorescence emission.

[5] = Absorbance and emission in 0.1M NaOH; format: physicochemical
Source text: The absorbance and fluorescence spectra of the fluorophore typically are pH dependent. For example, the absorbance maximum for one ester derivative (compound 15d) in 0.1M NaOH is 620 nm and the emission maximum in same solvent is 770 nm. The Stokes shift in this solvent is 150 nm (3142 cm^−1).

[6] = Saccharide sensing, absorbance and fluorescence response
Description: Solvents including MeCN, MeOH, EtOH, DMSO and buffer were initially screened for sugar sensing. […] DMSO mixtures were chosen for further studies.
The final pH 7.4 phosphate buffer concentration was 12.5 mM.

[7] = Saccharide sensing, response to fructose; conditions: DMSO:buffer 1:9; estimated from 140-fold fluorescence and 3-fold absorbance increase
[8] = Spectral properties of rhodamine bis-boronic acids and precursors (Table 5); format: physicochemical
Source text: Excitation and emission spectra were normalized to their absorbance at the excitation wavelength, and are proportional to quantum yield.

[9] = Saccharide sensing, response to ribose; conditions: DMSO:buffer 1:1, entire concentration range investigated
Description: The spectral behavior of both compounds 51 and 53 in the presence of saccharides was further investigated in both 1:1 and 1:9 DMSO-buffer (final pH 7.4 phosphate buffer concentration of 12.5 mM) solutions. Both bis-boronic acids responded to binding of sugars through a red shift in their emission and the expected increase in fluorescence intensity.
FIGS. 37A-37D show the response of bis-boronic acid 51 to fructose, ribose and glucose under the two solvent conditions mentioned above. […] At high sugar concentrations, the response for all three sugars converged. […] An approximately 1.5-fold increase in both absorbance and fluorescence was observed over the entire concentration range investigated. Binding of all three sugars occurred at lower concentrations as compared to the 1:9 DMSO:buffer system, with the response of both ribose and fructose having already plateaued at 10 mM, the lowest concentration investigated. Unlike the 1:9 solvent system, there were significant spectral differences in the responses toward different sugars (FIG. 37C compared to FIG. 37A).

[10] = DMSO:buffer 1:1, pH 7.4 phosphate buffer 12.5 mM
[11] = DMSO:buffer 1:9, pH 7.4 phosphate buffer 12.5 mM
[12] = DMSO:buffer 1:9, high sugar concentrations, all sugars

SMILES: O=C1OC2(c3ccccc31)c1ccc3cccc(O)c3c1Oc1c2ccc2cccc(O)c12 [Compound 7]
form in solution ([1]; 1:9 DMSO:buffer below physiological pH of 7.4): colorless lactone | longest wavelength emission ([2]; NaOH (pH 12), anion/dianion/phenoxide, 15 μM, 90% aqueous, 10% DMSO): either too weak to be detected or, more likely, beyond the working range of the instrument

SMILES: Cc1ccc(C)c(-c2c3ccc4cccc(O)c4c3oc3c2ccc2cccc(=O)c23)c1 [Compound 4a]
absorption in the blood solution ([3]; blood solution): clearly visible and remained stable over extended periods of time

SMILES: COC(=O)c1ccccc1-c1c2ccc(=O)cc-2oc2c1ccc1cccc(N)c12 [Compound 15e]
pH titration of absorption ([1]; low pH): increased long wavelength absorption and decreased short wavelength absorption at low pH

SMILES: O=C(O)c1ccccc1-c1c2ccc3cc(NCc4ccccc4B(O)O)ccc3c2oc2c1ccc1cc(=NCc3ccccc3B(O)O)ccc12 [Compound 53]
increase in emission ([6]; DMSO:buffer 1:1, all three sugars, emission at 720 nm, excitation at 640 nm): ~5 fold | quantum yield after binding [7]: 0.186

SMILES: O=C(O)c1ccccc1-c1c2ccc(NCc3ccccc3B(O)O)cc2oc2c1ccc1cc(=NCc3ccccc3B(O)O)ccc12 [Compound 51]
Abs [8, 10]: 579 nm | Brightness [8, 10]: 8037 | Em [8, 10]: 643 nm | Ex [8, 10]: 580 nm | Q.Y. [8, 10]: 0.35 | ε [8, 10]: 23096 M⁻¹ cm⁻¹ | Abs [8, 11]: 560 nm | Brightness [8, 11]: 3032^e | Em [8, 11]: 638 nm | Ex [8, 11]: 568 nm | Q.Y. [8, 11]: 0.15 | ε [8, 11]: 20326 M⁻¹ cm⁻¹ | increase in absorbance [6, 12]: ~2 fold | increase in fluorescence [6, 12]: greater than 5 fold | increase in absorbance [9]: approximately 1.5 fold | increase in fluorescence [9]: approximately 1.5 fold

Further lines, results first:

red-shift of absorbance maximum [1]: 50 nm | absorbance maximum ([1]; anion, DMSO:aqueous base 1:9): 599 nm | bathochromic shift in emission wavelength ([2]; anion 15h compared to anion 20c): 130 nm | Stokes shift ([2]; anion/phenoxide in NaOH (pH 12)): about 165 nm | fluorescence emission ([2]; anion, DMSO:aqueous base 1:9): 760 nm | Stokes shift ([2]; anionic form, NIR emission at 760 nm): 160 nm
SMILES: COC(=O)c1ccccc1-c1c2ccc(=O)cc-2oc2c1ccc1cccc(O)c12 [Compound 15h]

bathochromic shift in the absorption spectrum [4]: 15 nm | bathochromic shift in the fluorescence emission [4]: 32 nm | red-shift of absorbance maximum [1]: 15 nm
SMILES: COC(=O)c1ccccc1-c1c2ccc(=O)cc-2oc2c1ccc1cccc(O)c12 [Compound 15a]

absorbance maximum [5]: 620 nm | emission maximum [5]: 770 nm | time emission remained stable ([3]; 5% whole blood): at least 1 hour
SMILES: COC(=O)c1ccccc1-c1c2ccc(=[N+](C)C)cc-2oc2c1ccc1cccc(O)c12 [Compound 15d]

bathochromic shift in the absorption spectrum [4]: 103 nm | bathochromic shift in the fluorescence emission [4]: 128 nm | fluorescence emission ([2]; 15 μM, 90% aqueous, 10% DMSO, instrument range to 850 nm): not observed
SMILES: COC(=O)c1ccccc1-c1c2ccc3cccc(O)c3c2oc2c1ccc1cccc(=O)c12 [Compound 8]

quantum yield ([8]; DMSO buffer 1:9): 19% | red shift of maximum absorption versus rhodamine 110 ([8]; DMSO buffer 1:9): 40 nm | red shift of maximum emission versus rhodamine 110 ([8]; DMSO buffer 1:9): ~100 nm | Abs [8, 10]: 542 nm | Brightness [8, 10]: 6298 | Em [8, 10]: 630 nm | Ex [8, 10]: 542 nm | Q.Y. [8, 10]: 0.30 | ε [8, 10]: 21064 M⁻¹ cm⁻¹ | Abs [8, 11]: 535 nm | Brightness [8, 11]: 8083 | Em [8, 11]: 628 nm | Ex [8, 11]: 534 nm | Q.Y. [8, 11]: 0.19 | ε [8, 11]: 42701 M⁻¹ cm⁻¹
SMILES: N=c1ccc2c(ccc3c(-c4ccccc4C(=O)O)c4ccc(N)cc4oc32)c1 [Compound 50]
